Assay results from ChEMBL document CHEMBL1151930, “Physicochemical determinants of human renal clearance” (J Med Chem, 2009).

Assay: clinical
Conditions: human, in vivo

Point of comparison: CNC(=C[N+](=O)[O-])NCCSCc1csc(CN(C)C)n1 [NIZATIDINE], CL renal 7.35 mL/min/kg. Against it:
- CC(=O)O[C@@]12CO[C@@H]1C[C@H](O)[C@@]1(C)C(=O)[C@H](O)C3=C(C)[C@@H](OC(=O)[C@H](O)[C@@H](NC(=O)OC(C)(C)C)c4ccccc4)C[C@@](O)([C@@H](OC(=O)c4ccccc4)[C@H]21)C3(C)C.O.O.O [DOCETAXEL] — 25-fold lower, 0.29 mL/min/kg
- O=c1[nH]c2ccccc2n1CCCN1CCC(n2c(=O)[nH]c3cc(Cl)ccc32)CC1 [DOMPERIDONE] — 180-fold lower, 0.04 mL/min/kg
- CN(C)CCC=C1c2ccccc2COc2ccccc21 [DOXEPIN] — 61-fold lower, 0.12 mL/min/kg
- C[C@H]1O[C@@H](n2cc(F)c(=O)[nH]c2=O)[C@H](O)[C@@H]1O [DOXIFLURIDINE] — 1.7-fold lower, 4.3 mL/min/kg
- COc1cccc2c1C(=O)c1c(O)c3c(c(O)c1C2=O)C[C@@](O)(C(=O)CO)C[C@@H]3O[C@H]1C[C@H](N)[C@H](O)[C@H](C)O1 [DOXORUBICIN] — 4-fold lower, 1.83 mL/min/kg
- C[C@H]1c2cccc(O)c2C(=O)C2=C(O)[C@]3(O)C(=O)C(C(N)=O)=C(O)[C@@H](N(C)C)[C@@H]3[C@@H](O)[C@@H]21.O [DOXYCYCLINE] — 39-fold lower, 0.19 mL/min/kg
- C[C@H](N[C@@H](CCc1ccccc1)C(=O)O)C(=O)N1CCC[C@H]1C(=O)O [ENALAPRILAT ANHYDROUS] — 4.6-fold lower, 1.6 mL/min/kg
- COc1ccc(C(=O)Nc2ccccc2CCC2CCCCN2C)cc1 (centres undefined) [ENCAINIDE] — 9.4-fold lower, 0.78 mL/min/kg
- CSc1ccc(C(=O)c2[nH]c(=O)[nH]c2C)cc1 [ENOXIMONE] — 73-fold lower, 0.1 mL/min/kg
- CCCCc1ncc(/C=C(\Cc2cccs2)C(=O)O)n1Cc1ccc(C(=O)O)cc1 [EPROSARTAN] — 10-fold lower, 0.7 mL/min/kg
- CC[C@H]1OC(=O)[C@H](C)[C@@H](O[C@H]2C[C@@](C)(OC)[C@@H](O)[C@H](C)O2)[C@H](C)[C@@H](O[C@@H]2O[C@H](C)C[C@H](N(C)C)[C@H]2O)[C@](C)(O)C[C@@H](C)C(=O)[C@H](C)[C@@H](O)[C@]1(C)O [ERYTHROMYCIN] — 22-fold lower, 0.34 mL/min/kg
- CCNCC(O)c1cccc(O)c1 (centres undefined) [ETILEFRINE] — 1.9-fold lower, 3.96 mL/min/kg
- NC(N)=Nc1nc(CSCCC(N)=NS(N)(=O)=O)cs1 [FAMOTIDINE] — 1.7-fold lower, 4.42 mL/min/kg
- CC(C)(C)NC(=O)[C@H]1CC[C@H]2[C@@H]3CC[C@H]4NC(=O)C=C[C@]4(C)[C@H]3CC[C@]12C [FINASTERIDE] — 370-fold lower, 0.02 mL/min/kg
- CN1CCN(c2c(F)cc3c(=O)c(C(=O)O)cn(CCF)c3c2F)CC1 [FLEROXACIN] — 4.9-fold lower, 1.49 mL/min/kg
- Cc1onc(-c2c(F)cccc2Cl)c1C(=O)N[C@@H]1C(=O)N2[C@@H]1SC(C)(C)[C@@H]2C(=O)O [FLOXACILLIN] — 4.7-fold lower, 1.56 mL/min/kg
- OC(Cn1cncn1)(Cn1cncn1)c1ccc(F)cc1F [FLUCONAZOLE] — 32-fold lower, 0.23 mL/min/kg
- CCOC(=O)c1ncn2c1CN(C)C(=O)c1cc(F)ccc1-2 [FLUMAZENIL] — 240-fold lower, 0.03 mL/min/kg
- O=c1[nH]cc(F)c(=O)[nH]1 [FLUOROURACIL] — 6.7-fold lower, 1.1 mL/min/kg
- CCOC(=O)Nc1ccc(NCc2ccc(F)cc2)nc1N [FLUPIRTINE] — 27-fold lower, 0.27 mL/min/kg
- O=C(O)P(=O)(O)O [FOSCARNET] — 4.4-fold lower, 1.68 mL/min/kg
- CN[C@@H]1CCc2[nH]c3ccc(C(N)=O)cc3c2C1 [FROVATRIPTAN] — 7.1-fold lower, 1.04 mL/min/kg
- NCC1(CC(=O)O)CCCCC1 [GABAPENTIN] — 4.3-fold lower, 1.7 mL/min/kg
- COc1ccc2c3c1O[C@H]1C[C@@H](O)C=C[C@@]31CCN(C)C2 [GALANTAMINE] — 4.7-fold lower, 1.57 mL/min/kg
- Nc1nc(O)c2ncn(COC(CO)CO)c2n1 [GANCICLOVIR] — 1.8-fold lower, 4.14 mL/min/kg
- COc1c(N2CCNC(C)C2)c(F)cc2c(=O)c(C(=O)O)cn(C3CC3)c12 (centres undefined) [GATIFLOXACIN] — 3.2-fold lower, 2.3 mL/min/kg
- Nc1ccn([C@@H]2O[C@H](CO)[C@@H](O)C2(F)F)c(=O)n1 [GEMCITABINE] — 2.3-fold lower, 3.2 mL/min/kg
- CN1C2CCCC1CC(NC(=O)c1nn(C)c3ccccc13)C2 (centres undefined) [GRANISETRON] — 7.3-fold lower, 1 mL/min/kg
- CN1C(=O)NC(=O)C(C)(C2=CCCCC2)C1=O (centres undefined) [HEXOBARBITAL] — 370-fold lower, 0.02 mL/min/kg
- NNc1nncc2ccccc12 [HYDRALAZINE] — within 1.5-fold, 10.8 mL/min/kg
- NC(=O)NO [HYDROXYUREA] — 14-fold lower, 0.54 mL/min/kg
- CC(=O)[C@]1(O)Cc2c(O)c3c(c(O)c2[C@@H](O[C@H]2C[C@H](N)[C@H](O)[C@H](C)O2)C1)C(=O)c1ccccc1C3=O [IDARUBICIN] — 4.1-fold lower, 1.8 mL/min/kg
- O=P1(NCCCl)OCCCN1CCCl (centres undefined) [IFOSFAMIDE] — 13-fold lower, 0.58 mL/min/kg
- Nc1cc(-c2ccncc2)c[nH]c1=O [INAMRINONE] — 2.4-fold lower, 3.1 mL/min/kg
- COc1ccc2c(c1)c(CC(=O)O)c(C)n2C(=O)c1ccc(Cl)cc1 [INDOMETHACIN] — 37-fold lower, 0.2 mL/min/kg
- COCC(=O)Nc1c(I)c(C(=O)NCC(O)CO)c(I)c(C(=O)N(C)CC(O)CO)c1I (centres undefined) [IOPROMIDE] — 5.4-fold lower, 1.37 mL/min/kg
- O=C(c1ccc(F)cc1)C1CCN(CCn2c(=O)[nH]c3ccccc3c2=O)CC1 [KETANSERIN] — 150-fold lower, 0.05 mL/min/kg
- O=C(c1ccccc1)c1ccc2n1CCC2C(=O)O (centres undefined) [KETOROLAC] — 37-fold lower, 0.2 mL/min/kg
- CC(CCc1ccccc1)NCC(O)c1ccc(O)c(C(N)=O)c1 (centres undefined) [LABETALOL] — 8-fold lower, 0.92 mL/min/kg
- Cc1c(OCC(F)(F)F)ccnc1C[S+]([O-])c1nc2ccccc2[nH]1 (centres undefined) [LANSOPRAZOLE] — 180-fold lower, 0.04 mL/min/kg
- N#Cc1ccc(C(c2ccc(C#N)cc2)n2cncn2)cc1 [LETROZOLE] — 370-fold lower, 0.02 mL/min/kg
- N[C@@H](Cc1ccc(O)c(O)c1)C(=O)O [LEVODOPA] — 32-fold lower, 0.23 mL/min/kg
- C[C@H]1COc2c(N3CCN(C)CC3)c(F)cc3c(=O)c(C(=O)O)cn1c23.C[C@H]1COc2c(N3CCN(C)CC3)c(F)cc3c(=O)c(C(=O)O)cn1c23.O [LEVOFLOXACIN] — 5.2-fold lower, 1.41 mL/min/kg
- CC(=O)NC[C@H]1CN(c2ccc(N3CCOCC3)c(F)c2)C(=O)O1 [LINEZOLID] — 12-fold lower, 0.6 mL/min/kg
- NCCCC[C@H](N[C@@H](CCc1ccccc1)C(=O)O)C(=O)N1CCC[C@H]1C(=O)O [LISINOPRIL ANHYDROUS] — 6.1-fold lower, 1.2 mL/min/kg
- CCCCc1nc(Cl)c(CO)n1Cc1ccc(-c2ccccc2-c2nn[nH]n2)cc1 [LOSARTAN] — 8.2-fold lower, 0.9 mL/min/kg
- CC[C@H](C)C(=O)O[C@H]1C[C@@H](C)C=C2C=C[C@H](C)[C@H](CC[C@@H]3C[C@@H](O)CC(=O)O3)[C@H]21 [LOVASTATIN] — 10-fold lower, 0.72 mL/min/kg
- COC(=O)Nc1nc2ccc(C(=O)c3ccccc3)cc2[nH]1 [MEBENDAZOLE] — 43-fold lower, 0.17 mL/min/kg
- CCOC(=O)C1(c2ccccc2)CCN(C)CC1 [MEPERIDINE] — 29-fold lower, 0.25 mL/min/kg
- CCC1(c2cccc(O)c2)CCCCN(C)C1 (centres undefined) [MEPTAZINOL] — 5.2-fold lower, 1.4 mL/min/kg
- Sc1ncnc2nc[nH]c12 [MERCAPTOPURINE ANHYDROUS] — 11-fold lower, 0.68 mL/min/kg
- C[C@@H](O)[C@H]1C(=O)N2C(C(=O)O)=C(S[C@@H]3CN[C@H](C(=O)N(C)C)C3)[C@H](C)[C@H]12 [MEROPENEM] — 2.7-fold lower, 2.73 mL/min/kg
- CN(C)C(=N)N=C(N)N [METFORMIN] — within 1.5-fold, 7.4 mL/min/kg
- COc1cccc(OC)c1C(=O)N[C@@H]1C(=O)N2[C@@H]1SC(C)(C)[C@@H]2C(=O)O [METHICILLIN] — 1.7-fold lower, 4.2 mL/min/kg
- CN(Cc1cnc2nc(N)nc(N)c2n1)c1ccc(C(=O)N[C@@H](CCC(=O)O)C(=O)O)cc1 [METHOTREXATE] — 4.3-fold lower, 1.7 mL/min/kg
- C[C@](N)(Cc1ccc(O)c(O)c1)C(=O)O [METHYLDOPA] — 3.5-fold lower, 2.1 mL/min/kg
- C[C@H]1C[C@@H]2[C@H]([C@@H](O)C[C@@]3(C)[C@H]2CC[C@]3(O)C(=O)CO)[C@@]2(C)C=CC(=O)C=C12 [METHYLPREDNISOLONE] — 24-fold lower, 0.3 mL/min/kg
- CCN(CC)CCNC(=O)c1cc(Cl)c(N)cc1OC [METOCLOPRAMIDE] — 6.4-fold lower, 1.14 mL/min/kg
- COc1ccc2cc1Oc1cc3c(cc1OC)CC[N+](C)(C)[C@H]3Cc1ccc(cc1)Oc1c(OC)c(OC)cc3c1[C@@H](C2)[N+](C)(C)CC3.[I-].[I-] [METOCURINE IODIDE] — 14-fold lower, 0.52 mL/min/kg
- Cc1ccccc1N1C(=O)c2cc(S(N)(=O)=O)c(Cl)cc2NC1C (centres undefined) [METOLAZONE] — 6.6-fold lower, 1.12 mL/min/kg
- COCCc1ccc(OCC(O)CNC(C)C)cc1 (centres undefined) [METOPROLOL] — 11-fold lower, 0.65 mL/min/kg
- CC(=O)Nc1c(I)c(C(=O)O)c(I)c(N(C)C(C)=O)c1I [METRIZOIC ACID] — 2.9-fold lower, 2.53 mL/min/kg
- Cc1ncc([N+](=O)[O-])n1CCO [METRONIDAZOLE] — 39-fold lower, 0.19 mL/min/kg
- Cc1cccc(C)c1OCC(C)N (centres undefined) [MEXILETINE] — 8.9-fold lower, 0.83 mL/min/kg
- OCCN1C[C@H](O)[C@@H](O)[C@H](O)[C@H]1CO [MIGLITOL] — 4.3-fold lower, 1.7 mL/min/kg
- Cc1[nH]c(=O)c(C#N)cc1-c1ccncc1 [MILRINONE] — within 1.5-fold, 5 mL/min/kg
- O=C1c2c(O)ccc(O)c2C(=O)c2c(NCCNCCO)ccc(NCCNCCO)c21 [MITOXANTRONE] — 15-fold lower, 0.5 mL/min/kg
- CO[C@@]1(NC(=O)C(C(=O)O)c2ccc(O)cc2)C(=O)N2C(C(=O)O)=C(CSc3nnnn3C)CO[C@@H]21 (some centres undefined) [MOXALACTAM] — 12-fold lower, 0.63 mL/min/kg
- COc1nc(C)nc(Cl)c1N=C1NCCN1 [MOXONIDINE] — within 1.5-fold, 7.5 mL/min/kg
- CC(C)(C)NCC(O)COc1cccc2c1CC(O)C(O)C2 (centres undefined) [NADOLOL] — 4.1-fold lower, 1.8 mL/min/kg
- CCOc1ccc2ccccc2c1C(=O)N[C@@H]1C(=O)N2[C@@H]1SC(C)(C)[C@@H]2C(=O)O [NAFCILLIN] — 7.1-fold lower, 1.03 mL/min/kg
- Oc1ccc2c3c1O[C@H]1[C@@H](O)CC[C@@]4(O)[C@@H](C2)N(CC2CCC2)CC[C@]314 [NALBUPHINE] — 7.7-fold lower, 0.95 mL/min/kg
- CC(C)[C@H]1CC[C@H](C(=O)N[C@H](Cc2ccccc2)C(=O)O)CC1 [NATEGLINIDE] — 73-fold lower, 0.1 mL/min/kg
- CCc1nn(CCCN2CCN(c3cccc(Cl)c3)CC2)c(=O)n1CCOc1ccccc1 [NEFAZODONE] — 19-fold lower, 0.38 mL/min/kg
- CCN[C@@H]1C[C@H](N)[C@@H](O[C@H]2OC(CN)=CC[C@H]2N)[C@H](O)[C@H]1O[C@H]1OC[C@](C)(O)[C@H](NC)[C@H]1O [NETILMICIN] — 26-fold lower, 0.28 mL/min/kg
- CN1CCC[C@H]1c1cccnc1 [NICOTINE] — 2.4-fold lower, 3 mL/min/kg
- O=C1CN=C(c2ccccc2)c2cc([N+](=O)[O-])ccc2N1 [NITRAZEPAM] — 740-fold lower, 0.01 mL/min/kg
- CCOC(=O)C1=C(C)NC(C)=C(C(=O)OC)C1c1cccc([N+](=O)[O-])c1 (centres undefined) [NITRENDIPINE] — 29-fold lower, 0.25 mL/min/kg
- CN1Cc2c(N)cccc2C(c2ccccc2)C1 (centres undefined) [NOMIFENSINE] — 1.7-fold higher, 12.5 mL/min/kg
- COc1ccc2[nH]c([S+]([O-])Cc3ncc(C)c(OC)c3C)nc2c1 (centres undefined) [OMEPRAZOLE] — 92-fold lower, 0.08 mL/min/kg
- CCC(CC)O[C@@H]1C=C(C(=O)O)C[C@H](N)[C@H]1NC(C)=O [OSELTAMIVIR CARBOXYLATE] — 1.6-fold lower, 4.46 mL/min/kg
- Cc1onc(-c2ccccc2)c1C(=O)N[C@@H]1C(=O)N2[C@@H]1SC(C)(C)[C@@H]2C(=O)O [OXACILLIN] — 2.8-fold lower, 2.6 mL/min/kg
- COc1ccc2c3c1O[C@H]1C(=O)CC[C@@]4(O)[C@@H](C2)N(C)CC[C@]314 [OXYCODONE] — 6.7-fold lower, 1.1 mL/min/kg
